Patent US4710578A, “Isothiuronium salts” (Peremartoni Vegyipari Vallalat, priority 1984, dated 1987)
Counter-ions that a name gives are not always drawn.

Key:
human lymphocytes [1] = assay: ADCC, 51Cr release from chicken erythrocytes; format: cell-based; conditions: for Cytotoxicity index, ADCC: 5:1, 4 hours, n=10, ± S.E.
Experimental: (§1) Lymphocytes were separated on Ficoll-Uromiro (Boyum 1968) gradient from the venal blood of healthy donors and patients suffering from malignant lymphoma and metastatizing solid tumours, respectively. When selecting the patients belonging to the latter group, the decreased ADCC and NK activity was taken into consideration. The phagocytes were removed by treatment with iron powder and a magnet.
ADCC was determined according to the method of Perlmann and Perlmann (1970) with minor modifications (Lang et al, 1981). Chicken erythrocytes labelled with 10^5 51 Cr and coated with anti-chicken erythrocyte rabbit-serum were incubated with the lymphocytes for 4 hours at 37° C. The reaction having been stopped the activity of the supernatant of the centrifuged cells was determined in a gamma-counter. The rate of chrome-release was expressed as the cytotoxicity index (CI %). This value was calculated as described in one of our earlier publications (Lang et al., 1980)--(see Table I).
Effect on ADDC. Cytotoxicity index /%/.
Ratio of effector cells; aimed cells = 5:1. Incubation time 4 hours.

human lymphocytes [2] = assay: NK activity, 51Cr release from K-562 tumor cells; format: cell-based; conditions: for Cytotoxicity index, NK activity: 50:1, 4 hours, ± S.E.
Experimental: as §1
NK activity was determined by the method of Jondal and Pross (1975) by using minor modifications (Lang et al, 1981). K-562 tumor cells labelled by ^51 Cr were incubated with effector cells in a TC 199 liquid nutrient medium comprising 10% of decomplemented calf serum. The reaction having been stopped the radioactivity of the superntant of the centrifuged cells (chrome release) was counted in a gamma-counter. The killing of the tumor cells (cytotoxicity index %) was expressed as the difference of the test release and spontaneous release.
Ratio of effector cells: aimed cells = 50:1.
Incubation time 4 hours.

[3] = system: human polymorphonuclear leucocytes; assay: Direct /random/ migration of human polymorphonuclear leucocytes on agarose microdrops; format: cell-based; conditions: seven healthy controls, ± S.E.M.
Experimental: Spontaneous (random) migration of leukocytes was measured on agarose microdrops according to the method of McCoy et al (1977) by carrying out some minor modifications (Kalmar and Gergely, 1982).
[…] agarose drops (0.2%) were placed on migration plates (Greiner, German Federal Republic). TC 199 liquid nutrient medium was added and the plates were air-tightly closed. After 24 hours the migration area were measured under a stereomicroscope. The migration area were expressed in mm^2.

human lymphocytes [4] = assay: Mitogen-induced blastos transformation (PHA, Con A); format: cell-based
Experimental: Lymphocytes were cultivated in a TC 199 liquid nutrient medium completed by 10% decomplemented calf serum, antibiotics and […] HEPES (Serva). 200 μl of a cell suspension comprising 2.10^5 lymphocytes were placed on a microplate (manufacturer: Sterilin Great Britain); five parallels were carried out each.
2 and 10 μg/ml, respectively of Phytohaemagglutinine (Leucoagglutinine; manufacturer Pharmacie Sweden) and 25 μg/ml of Concanavalin A (Carbiochem) were added to the cultures; the above values relate to final concentration. The cultures were cultivated at 37° C. for 72 hours. Eight hours before the termination of the end of the cultivating period 0.5 μCi ^3 H thymidine (Chemapol. Czechoslovakia) was added to the samples. Incubation was stopped by freezing the cultures. After melting the samples were filtered on an automatic harvester (Dynatech). The radioactivity of the samples was measured in a scintillation counter. The activity was expressed as c.p.m. (Tables IV and V).

[5] = system: neutrophilic granulocytes, lymphocytes and macrophages; assay: Preliminary rapid test: immunostimulant effect; format: in vivo, CFLP male mice; conditions: oral, one-tenth of LD50; 24 hours
NK-yl ascites tumor = assay: Combinations with known cytostatic agents in NK-ly ascites tumor; format: in vivo, CFLP mice; conditions: with cyclophosphamide, carnomustine, degranol, dibromo dulcitol or dibromo mannitol
tumor cells = assay: Testing of antitumor effect (overall)
[6] = system: neutrophylic granulocytes and limphocytes; conditions: mouse, in vivo, po
[7] = Decreased ADCC, 6,7 × 10^-8 mole
[8] = Decreased ADCC, 6,7 × 10^-9 mole
[9] = Decreased ADCC, 6,7 × 10^-10 mole

SMILES: C=CCSC(=N)NC(=N)N [Compound A, N-/aminoiminomethyl/-S-allyl-isothiuronium salts (halogenides)]
- Change of ADCC cytotoxicity index vs control (human lymphocytes [1]; [7]): +264%
- Cytotoxicity index, ADCC (human lymphocytes [1]; [7]): 10.2 ± 2.7%
- Change of ADCC cytotoxicity index vs control (human lymphocytes [1]; [8]): +175%
- Cytotoxicity index, ADCC (human lymphocytes [1]; [8]): 7.7 ± 1.9%
- Change of ADCC cytotoxicity index vs control (human lymphocytes [1]; [9]): +126%
- Cytotoxicity index, ADCC (human lymphocytes [1]; [9]): 6.35 ± 1.7%
- Change of ADCC cytotoxicity index vs control (human lymphocytes [1]; Normal ADCC, 6,7 × 10^-8 mole): +62%
- Cytotoxicity index, ADCC (human lymphocytes [1]; Normal ADCC, 6,7 × 10^-8 mole): 68.2 ± 5.3%
- Change of ADCC cytotoxicity index vs control (human lymphocytes [1]; Normal ADCC, 6,7 × 10^-9 mole): +52%
- Cytotoxicity index, ADCC (human lymphocytes [1]; Normal ADCC, 6,7 × 10^-9 mole): 64 ± 5.8%
- Change of ADCC cytotoxicity index vs control (human lymphocytes [1]; Normal ADCC, 6,7 × 10^-10 mole): +39%
- Cytotoxicity index, ADCC (human lymphocytes [1]; Normal ADCC, 6,7 × 10^-10 mole): 58.5 ± 5.2%
- Change of NK cytotoxicity index vs control (human lymphocytes [2]; Decreased NK, 6.7 × 10^-9 mole/ml): +68%
- Cytotoxicity index, NK activity (human lymphocytes [2]; Decreased NK, 6.7 × 10^-9 mole/ml, n=7): 25.3 ± 3.2%
- Change of NK cytotoxicity index vs control (human lymphocytes [2]; Decreased NK, 6.7 × 10^-10 mole/ml): +43%
- Cytotoxicity index, NK activity (human lymphocytes [2]; Decreased NK, 6.7 × 10^-10 mole/ml, n=7): 21.6 ± 3.0%
- Change of NK cytotoxicity index vs control (human lymphocytes [2]; Decreased NK, third dose column (printed 6.7 × 10^-31 8)): +113%
- Cytotoxicity index, NK activity (human lymphocytes [2]; Decreased NK, third dose column (printed 6.7 × 10^-31 8) mole/ml, n=7): 32.2 ± 3.2%
- Change of NK cytotoxicity index vs control (human lymphocytes [2]; Normal NK, 6.7 × 10^-9 mole/ml): +32%
- Cytotoxicity index, NK activity (human lymphocytes [2]; Normal NK, 6.7 × 10^-9 mole/ml, n=8): 43.4 ± 2.7%
- Change of NK cytotoxicity index vs control (human lymphocytes [2]; Normal NK, 6.7 × 10^-10 mole/ml): +25%
- Cytotoxicity index, NK activity (human lymphocytes [2]; Normal NK, 6.7 × 10^-10 mole/ml, n=8): 41 ± 2.9%
- Change of NK cytotoxicity index vs control (human lymphocytes [2]; Normal NK, third dose column (printed 6.7 × 10^-31 8)): +45%
- Cytotoxicity index, NK activity (human lymphocytes [2]; Normal NK, third dose column (printed 6.7 × 10^-31 8) mole/ml, n=8): 47.6 ± 1.4%
- Migration area ([3]; 0.1 μg/ml, non significant): 10.51 mm^2
- Migration area ([3]; 1.0 μg/ml, p < 0.01): 12.25 ± 1.58 mm^2
- Migration area ([3]; 10.0 μg/ml, p < 0.01): 11.24 ± 1.69 mm^2
- Blastos transformation, average c.p.m. (human lymphocytes [4]; healthy controls n=6, Con A 25 μg/ml, dose 0.1 μg/ml): 10564 c.p.m.
- Blastos transformation, average c.p.m. (human lymphocytes [4]; healthy controls n=6, Con A 25 μg/ml, dose 1.0 μg/ml): 14089 c.p.m.
- Blastos transformation, average c.p.m. (human lymphocytes [4]; healthy controls n=6, Con A 25 μg/ml, dose 10.0 μg/ml): 17038 c.p.m.
- Blastos transformation, average c.p.m. (human lymphocytes [4]; healthy controls n=6, PHA 2 μg/ml, dose 0.1 μg/ml): 22233 c.p.m.
- Blastos transformation, average c.p.m. (human lymphocytes [4]; healthy controls n=6, PHA 2 μg/ml, dose 1.0 μg/ml): 23156 c.p.m.
- Blastos transformation, average c.p.m. (human lymphocytes [4]; healthy controls n=6, PHA 2 μg/ml, dose 10.0 μg/ml): 25404 c.p.m.
- Blastos transformation, average c.p.m. (human lymphocytes [4]; healthy controls n=6, PHA 10 μg/ml, dose 0.1 μg/ml): 29969 c.p.m.
- Blastos transformation, average c.p.m. (human lymphocytes [4]; healthy controls n=6, PHA 10 μg/ml, dose 1.0 μg/ml): 33826 c.p.m.
- Blastos transformation, average c.p.m. (human lymphocytes [4]; healthy controls n=6, PHA 10 μg/ml, dose 10.0 μg/ml): 33790 c.p.m.
- Blastos transformation, average c.p.m. (human lymphocytes [4]; patients of decreased reactivity /tumor and SLE/ n=6, Con A 25 μg/ml, dose 0.1 μg/ml): 1097 c.p.m.
- Blastos transformation, average c.p.m. (human lymphocytes [4]; patients of decreased reactivity /tumor and SLE/ n=6, Con A 25 μg/ml, dose 1.0 μg/ml): 935 c.p.m.
- Blastos transformation, average c.p.m. (human lymphocytes [4]; patients of decreased reactivity /tumor and SLE/ n=6, Con A 25 μg/ml, dose 10.0 μg/ml): 1023 ± 361 c.p.m.
- Blastos transformation, average c.p.m. (human lymphocytes [4]; patients of decreased reactivity /tumor and SLE/ n=6, PHA 2 μg/ml, dose 0.1 μg/ml): 2877 c.p.m.
- Blastos transformation, average c.p.m. (human lymphocytes [4]; patients of decreased reactivity /tumor and SLE/ n=6, PHA 2 μg/ml, dose 1.0 μg/ml): 4344 c.p.m.
- Blastos transformation, average c.p.m. (human lymphocytes [4]; patients of decreased reactivity /tumor and SLE/ n=6, PHA 2 μg/ml, dose 10.0 μg/ml): 4716 ± 1287 c.p.m.
- Blastos transformation, average c.p.m. (human lymphocytes [4]; patients of decreased reactivity /tumor and SLE/ n=6, PHA 10 μg/ml, dose 0.1 μg/ml): 5802 c.p.m.
- Blastos transformation, average c.p.m. (human lymphocytes [4]; patients of decreased reactivity /tumor and SLE/ n=6, PHA 10 μg/ml, dose 1.0 μg/ml): 6323 c.p.m.
- Blastos transformation, average c.p.m. (human lymphocytes [4]; patients of decreased reactivity /tumor and SLE/ n=6, PHA 10 μg/ml, dose 10.0 μg/ml): 6968 ± 1669 c.p.m.

SMILES: N=C(N)NC(=N)SCCCCl [Example 15, N-Aminoiminomethyl-S-(3-Chloropropyl)-Isothiuronium Bromide]
- Immunostimulant effect [5]: weak
- Antitumor effect of combination vs cytostatic agent alone (NK-yl ascites tumor): the antitumor effect was strengthened
- Immunodepression of combination vs cytostatic agent alone (NK-yl ascites tumor): immunodepression decreased
- Antitumor effect (tumor cells): outstanding antitumor effect
- Toxic effect [6]: 0
- LD50 at 24 h (in vivo; po): 1210 ± 180 mg/kg

SMILES: N=C(N)NC(=N)SCCCBr [Example 28, N-aminoiminomethyl-S-(3-bromo-propyl)-isothiuronium bromide]
- Immunostimulant effect [5]: weak
- Antitumor effect of combination vs cytostatic agent alone (NK-yl ascites tumor): the antitumor effect was strengthened
- Immunodepression of combination vs cytostatic agent alone (NK-yl ascites tumor): immunodepression decreased
- Antitumor effect (tumor cells): outstanding antitumor effect
- Toxic effect [6]: 0
- LD50 at 24 h (in vivo; po): 980 ± 640 mg/kg

SMILES: C=CCSC(=NCC)NC(=N)N [Example 34, N-aminoiminomethyl-N'-ethyl-S-allyl-isothiuronium chloride]
- Immunostimulant effect [5]: medium (Medium effect is observed if the increase of cell number or activity over the control amounts to 20%)
- Antitumor effect (tumor cells): outstanding antitumor effect
- Toxic effect [6]: 0
- LD50 at 24 h (in vivo; ip): 84 ± 7.6 mg/kg
- LD50 at 24 h (in vivo; po): 780 ± 62 mg/kg

SMILES: CC(C)N=C(NC(=N)N)SCCCCl [Example 35, N-aminoiminomethyl-N'-isopropyl-S-(3-chloropropyl)-isothiuronium bromide]
- Antitumor effect (tumor cells): outstanding antitumor effect

SMILES: C=C(C)CSC(=NC(C)C)NC(=N)N [Example 36, N-aminoiminomethyl-N'-isopropyl-S-methallyl-isothiuronium chloride]
- Antitumor effect (tumor cells): outstanding antitumor effect

SMILES: C=C(C)CSC(=NC1CCCCC1)NC(=N)N [Example 38, N-aminoiminomethyl-N'-cyclohexyl-S-methallyl-isothiuronium chloride]
- Antitumor effect (tumor cells): outstanding antitumor effect
